Experimental data taken from article PMC13242511, “Disrupting Notch signalling by a small molecule inhibiting dihydroorotate dehydrogenase activity” (Scientific Reports, 2026).
Like-named read-outs stand apart in the source and are kept apart here.

What was measured:
Notch signalling = assay: Notch reporter assay (12xCSL firefly luciferase / renilla luciferase, HEK293T Notch1ΔE reporter cell line clone #A1-11); type: cell-based; set-up: AUC Notch: scale not given here; conditions: for Bottom (Emax): Emax indicated independent from assay constraints, in % (unit assumed); for IC50 / activity at 10 µM / activity at 25 µM / activity: Homo sapiens, HEK-293T; for AUC Notch: area under the 14-point dose-response curve, replicates averaged; for activity: 1,25µM
Source text: To identify novel Notch inhibitors in an unbiased manner, we generated a novel Notch reporter construct, which records the level of Notch signalling immediately downstream of receptor activation rather than further downstream in the signalling cascade, for example at the level of Hes and Hey proteins (Fig. 1B). […] The reporter construct carries piggy-bac sequences at both ends of the promoter-reporter cassette as well as cSH4 insulator elements to reduce transcriptional noise[21] and was transfected into HEK293T cells. To achieve a robust level of Notch receptor activity in the HEK293T reporter cell line and to confine the search for inhibitors to compounds affecting the receptor function and eliminating the need for ligand activation, a truncated ligand-independent version of the Notch1 receptor, mimicking an S2-cleaved Notch1 receptor (Notch1ΔE) and spontaneously activated by S3-cleavage[22] (Fig. 1C) was introduced into the cell line carrying the reporter construct (Fig. 1D). In addition, an HSV-TK-renilla luciferase plasmid was introduced into the cell line as an internal control for normalisation of the reporter expression (Fig. 1D).
A de novo Notch reporter construct, composed of six dimeric CSL binding sites linked to a basic b-globin promoter and followed by a firefly luciferase gene and a PEST degradation domain was synthesised (GeneArt). The construct was stably introduced into HEK293T cells, and zeocin (0.1 mg/ml) or Puromycin (0.05 mg/ml (ThermoFisher, cat #R25001, #A1113803) were used as selection markers. A clonal cell line (clone #A1) with robust renilla expression and enhanced firefly luciferase expression upon transient transfection of Notch1 ICD or Notch1ΔE constructs was selected, and a UB6 promoter-Notch1DE construct was stably introduced into this cell line using Blasticidin (0.1 mg/ml; ThermoFisher, cat #A1113903) as a selection marker. Stable cell lines were generated by serial dilution and only clonal colonies were selected for further evaluation. To measure luciferase reporter activity, cells were washed in cold PBS, detached, and collected in pre-warmed cell culture medium and centrifugated for five min at 200xg. The cell pellet was resuspended in medium, cells were counted, and 4,000 cells were seeded in each well of a white 384 well plate (Corning #3670) in 20 µl medium containing either DMSO or the GSI DAPT (N-[N-(3,5-Difluorophenacetyl)-L-alanyl]-S-phenylglycine t-butyl ester, Sigma-Aldrich, cat #565784-M) and incubated for 24 h. The efficacy of the reporter gene system was determined by monitoring the level of luciferase activation in the absence or presence of different amounts of DAPT in several cell clones. Luciferase activity was assessed using the dual-GLO luciferase detection kit from Promega (cat # E2920), following the manufacturer’s instructions. A minimum of two technical replicates were measured per clone using a SpectraMaxi3 plate reader (Molecular Devices). Reporter activity of different clones and in response to DAPT was assessed by normalising firefly (Notch activity) to renilla luciferase signals. Normalised signals of individual clones cultivated in DMSO were then compared to corresponding signals generated with DAPT-treated cells. The cell clone with the strongest signal to control ratio (DMSO to DAPT) was then selected for further exploration (clone #A1-11).
37,966 compounds were spotted by the compound center at SciLifeLab (https://www.scilifelab.se/) on a total of 120 plates (Greiner #781080) at a fixed concentration of 10 µM and the screening process spanned five consecutive sessions. The layout of each plate contained one column for DMSO and one for DAPT controls to determine the quality and reliability of the data. DAPT controls were spotted at 10 µM and DMSO was spotted in an equimolar volume. In addition, plates spotted with only DMSO were utilized to investigate the impact of plate effects before and after each session. […]

γ-secretase complex = γ-secretase complex (Homo sapiens, UniProt P49768); assay: APP-C99 counter assay (GSI reporter assay); type: cell-based; set-up: AUC APP: scale not given here; conditions: for AUC APP: area under the 14-point dose-response curve, replicates averaged; for remaining activity at 10 µM / remaining activity at 25 µM / remaining activity at […]: 24 h, APP-C99 counter assay, read-out: 3p-DR in % of DMSO counter; for remaining activity at […]: 1,25µM
Experimental: To this end, we used a previously established reporter gene-based GSI assay (APP-C99) (Fig. 3A), which measures γ-secretase activity through cleavage of amyloid precursor protein (APP), another protein processed by the γ-secretase complex[24]
Plasmids for APP and luciferase are described in[24] and the renilla plasmid described above generated for this project was used to normalize firefly values. 24 h post transfection cells were seeded on compound plates and cells were cultivated for 24 h before luciferase signals were read, as described.
Two-fold concentrations of compounds were diluted in 10 µl cell culture medium and brought to one-fold by seeding 10 µl containing 4000 cells of the respective cell type on each well of a 384-well plate, as described above. Analogous to the previous assays, all plates contained one DMSO and DAPT control column with the Notch reporter cell line (#A1-11) and a DMSO only and Notch inhibitor control plate was read before the measuring the screening plates. In addition, DAPT and DMSO were spotted in a dose response fashion, and a minimum of four replicates were read. Dose-responses of compounds were recorded in triplicates for each concentration reading out the dual luciferase reporters, as described above. Dose response assays were read together in one session. To measure compound effects, the different assays dose–response curves were fitted using the log(inhibitor) vs. response – Variable slope (model: Y = Bottom + (Top–Bottom)/(1 + 10^((LogIC50-X)*HillSlope)) equation.
A DMSO plate was read before measuring luciferase activity of compound spotted plates. APP firefly luciferase reporter assays were read with a signal integration time of 0.1 s, instead of 0.5 s used for the Notch reporter to reduce signal overlap between wells. […] The area-under-the-curve (AUC) was calculated on dose–response curves using Graphpad Prism.

[1] = 14-point dose-response, Fig. 4, read-out: approximated IC50, Notch reporter assay
[2] = 14p Notch assay DR, bottom constrained to Emax of positive control DAPT, read-out: approximated IC50
[3] = 14p Notch assay DR, log10 value, bottom constrained to Emax of positive control DAPT, read-out: approximated LogIC50 (converted)
[4] = 14p APP assay DR, bottom constrained to Emax of positive control LY-411575
[5] = overview in comparison to compound C, Supplemental Fig. 9
[6] = 10 µM, primary screen, 24 h, unit from Fig. 2 legend, read-out: Primary screen at 10 µM (Notch reporter signal)
[7] = 10 µM, three-dose confirmation screen, unit from Fig. 2 legend, read-out: Hit confirmation at 10 µM (Notch reporter signal)
[8] = 10µM, 3-point DR confirmation screen, Notch reporter assay, read-out: inhibitor ratio in % of DMSO in 3 point DR
[9] = 10 µM, sheet conf vs counter 10 µM, same values as 3-point DR confirmation screen, read-out: Confirmation screen
[10] = 25µM, 3-point DR confirmation screen, Notch reporter assay, read-out: inhibitor ratio in % of DMSO in 3 point DR
[11] = 25 µM, Notch reporter 3-point dose-confirmation assay, sheet "conf vs counter 25 µM", read-out: Confirmation screen
[12] = 3-point DR confirmation screen, Notch reporter assay, read-out: inhibitor ratio in % of DMSO in 3 point DR

Row | Compound | Bottom (Emax) (Notch signalling; 14p Notch assay DR) | IC50 (Notch signalling; [1]) | IC50 (Notch signalling; [2]) | IC50 (Notch signalling; [3]) | AUC Notch (Notch signalling) | Hill-slope (γ-secretase complex; [4]) | AUC APP (γ-secretase complex) | further results
1 | COc1ccc2[nH]c3c(c2c1)CCOC31CCN(Cc2ccccc2-c2ccccc2)CC1 [CBK040114] | 45.9 | 1.4 µM | 1.3 µM | 1.26 µM | 576.0 | 0.0153 | 713.8 | 
2 | CCc1c(C)sc(NC(=O)C2CCC2)c1C(=O)NCc1cccnc1 [CBK307414] |  | 7.5 µM |  |  | 311.0 | 0.0127 | 416.6 | IC50 (Notch signalling; 14p Notch assay DR, bottom constrained to Emax of positive control RO4929097, read-out: approximated IC50): 7.4 µM; IC50 (Notch signalling; 14p Notch assay DR, log10 value, bottom constrained to Emax of positive control RO4929097, read-out: approximated LogIC50 (converted)): 7.94 µM
3 | CC1=C(C(=O)OC2CCCCC2)C(c2ccc([N+](=O)[O-])cc2)C2=C(CC(C)(C)CC2=O)N1 (stereo not shown) [FLI-06, reference compound] |  |  |  |  |  |  |  | reporter signal in % of DMSO (Notch signalling; 10 µM, inhibitor controls, Supplemental Fig. 2A): 62%; Notch assay (Notch signalling; [5]): active, potency n.d.; APP assay (γ-secretase complex; [5]): active, potency n.d.
4 | O=C1NC(c2cccnc2)Nc2sc3c(c21)CCCC3 (stereo not shown) [CBK072377] | 89.1 |  |  |  | 364.0 | 0.0091 | 497.7 | approximated IC50, Notch reporter assay (Notch signalling; 14-point dose-response, Fig. 4): Indeterminate
5 | NC(=O)c1c(NC(=O)NC2CCCCC2)sc2c1CCCC2 [CBK431895] | 87.8 | 33.5 µM |  |  | 341.0 | -0.00462 | 411.0 | 
6 | Oc1cc(-c2ccccc2)nn1-c1nc2ccccc2s1 [CBK016481] | 98.5 |  |  |  | 626.0 | 0.00215 | 668.5 | approximated IC50, Notch reporter assay (Notch signalling; 14-point dose-response, Fig. 4): Indeterminate
7 | COc1cc(Nc2nc(-c3cccc(Cl)c3)cn3ccnc23)cc(OC)c1OC [CBK066271] | 87.7 |  |  |  | 348.0 | -16.9 | 485.9 | 
8 | COC(=O)c1cccc(N2C(=O)c3ccc(Oc4cccc(NC(C)=O)c4)cc3C2=O)c1 [CBK033640] | 91.5 |  |  |  | 399.0 | 0.0705 | 553.6 | 
9 | CCn1ncc(CN(C)C(=O)c2cc(-c3cccnc3)nc3ccc(Cl)cc23)c1C [CBK276708] | 29.2 | > 5 µM | 10 µM | 10 µM | 559.0 |  | 735.5 | curve fit information (γ-secretase complex; [4]): IC50 indeterminate
10 | CC(=O)Oc1cccc(N2C(=O)c3ccc(Oc4cccc(N)c4)cc3C2=O)c1 [CBK261099] | 18.6 |  | 1.8 µM | 1.58 µM | 282.0 | -2.8 | 428.7 | activity at 10 µM (Notch signalling; [6]): 31.5%; activity at 10 µM (Notch signalling; [7]): 28.1%; activity at 10 µM (Notch signalling; [8]): 28.1%; activity at 10 µM (Notch signalling; [9]): 28.1%; activity at 25 µM (Notch signalling; [10]): 20.3%; activity at 25 µM (Notch signalling; [11]): 20.3%; activity (Notch signalling; [12]): 87.9%; remaining activity at 10 µM (γ-secretase complex): 80.5%; remaining activity at 25 µM (γ-secretase complex): 59.7%; remaining activity at […] (γ-secretase complex): 124%
11 | Cc1ccccc1Nc1nc(N)nc(CN2CCCC(C(F)(F)F)C2)n1 (stereo not shown) [CBK305073] | 32.5 |  | 5 µM | 5.01 µM | 305.0 | 0.121 | 566.4 | activity at 10 µM (Notch signalling; [6]): 39.6%; activity at 10 µM (Notch signalling; [7]): 65.1%; activity at 10 µM (Notch signalling; [8]): 65.1%; activity at 10 µM (Notch signalling; [9]): 65.1%; activity at 25 µM (Notch signalling; [10]): 48.4%; activity at 25 µM (Notch signalling; [11]): 48.4%; activity (Notch signalling; [12]): 102%; remaining activity at 10 µM (γ-secretase complex): 129%; remaining activity at 25 µM (γ-secretase complex): 156%; remaining activity at […] (γ-secretase complex): 92.5%
12 | c1ccc(Nc2nc(-c3ccc(Oc4ccccc4)cc3)cn3ccnc23)cc1 [CBK066406] | 88.8 |  |  |  | 367.0 | 0.00761 | 491.7 | 
